Test results as given in patent US10206394B2, “Herbicidal compounds” (Syngenta Participations AG, priority 2014, dated 2019).
Read-outs that look alike come from different tables or passages of the source.

Assays:
Experiment in all cases: Glasshouse assay for herbicidal activity (pre- and post-emergence), percentage phytotoxicity
Assay type in all cases: in vivo
Avena fatua (AVEFA) = details: Avena fatua
Procedure, shortened: (§1)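 Percent injury was estimated by eye on a scale where 0% means no damage and 100% complete damage. Ratings came 15 DAA post-emergence and 20 DAA pre-emergence, with plants held under 16 h light and 65% humidity at 24/18 °C or 20/16 °C day/night.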

[1] = system: Echinochloa crus-galli (ECHCG); details: Echinochloa crus-galli
Procedure, shortened: as §1

[2] = system: Alopecurus myosuroides (ALOMY); details: Alopecurus myosuroides
Procedure, shortened: as §1

Lolium perenne (LOLPE) = details: Lolium perenne
Procedure, shortened: as §1

[3] = post-emergence, 360 h, Rate 250 g/ha, post-emergence, visual assessment 15 DAA, 100%=total damage, 0%=no damage, read-out: Post-emergence herbicidal activity (percentage phytotoxicity) AVEFA POST
[4] = pre-emergence, 480 h, Rate 250 g/ha, pre-emergence, visual assessment 20 DAA, 100%=total damage, 0%=no damage, read-out: Pre-emergence herbicidal activity (percentage phytotoxicity) AVEFA PRE
[5] = post-emergence, 360 h, Rate 250 g/ha, post-emergence, visual assessment 15 DAA, 100%=total damage, 0%=no damage, read-out: Post-emergence herbicidal activity (percentage phytotoxicity) ECHCG POST
[6] = pre-emergence, 480 h, Rate 250 g/ha, pre-emergence, visual assessment 20 DAA, 100%=total damage, 0%=no damage, read-out: Pre-emergence herbicidal activity (percentage phytotoxicity) ECHCG PRE
[7] = post-emergence, 360 h, Rate 250 g/ha, post-emergence, visual assessment 15 DAA, 100%=total damage, 0%=no damage, read-out: Post-emergence herbicidal activity (percentage phytotoxicity) ALOMY POST
[8] = pre-emergence, 480 h, Rate 250 g/ha, pre-emergence, visual assessment 20 DAA, 100%=total damage, 0%=no damage, read-out: Pre-emergence herbicidal activity (percentage phytotoxicity) ALOMY PRE
[9] = post-emergence, 360 h, Rate 250 g/ha, post-emergence, visual assessment 15 DAA, 100%=total damage, 0%=no damage, read-out: Post-emergence herbicidal activity (percentage phytotoxicity) LOLPE POST
[10] = pre-emergence, 480 h, Rate 250 g/ha, pre-emergence, visual assessment 20 DAA, 100%=total damage, 0%=no damage, read-out: Pre-emergence herbicidal activity (percentage phytotoxicity) LOLPE PRE

## C=CCNC(=O)CC1CC(=O)C(c2c(C)cc(/C=C/C)cc2CC)C1=O (centres unmarked) [Compound B193]
Avena fatua (AVEFA); post-emergence, 360 h, POST-emergence, rate 250 g/ha, visual score 15 DAA (100%=total damage, 0%=no damage), read-out: Post-emergence herbicidal activity (percentage phytotoxicity) AVEFA POST
  pest or weed control at 250 g/ha: 100%
Avena fatua (AVEFA); pre-emergence, 480 h, PRE-emergence, rate 250 g/ha, visual score 20 DAA (100%=total damage, 0%=no damage), read-out: Pre-emergence herbicidal activity (percentage phytotoxicity) AVEFA PRE
  pest or weed control at 250 g/ha: 90%
[1]; post-emergence, 360 h, POST-emergence, rate 250 g/ha, visual score 15 DAA (100%=total damage, 0%=no damage), read-out: Post-emergence herbicidal activity (percentage phytotoxicity) ECHCG POST
  pest or weed control at 250 g/ha: 100%
[1]; pre-emergence, 480 h, PRE-emergence, rate 250 g/ha, visual score 20 DAA (100%=total damage, 0%=no damage), read-out: Pre-emergence herbicidal activity (percentage phytotoxicity) ECHCG PRE
  pest or weed control at 250 g/ha: 100%
[2]; post-emergence, 360 h, POST-emergence, rate 250 g/ha, visual score 15 DAA (100%=total damage, 0%=no damage), read-out: Post-emergence herbicidal activity (percentage phytotoxicity) ALOMY POST
  pest or weed control at 250 g/ha: 100%
[2]; pre-emergence, 480 h, PRE-emergence, rate 250 g/ha, visual score 20 DAA (100%=total damage, 0%=no damage), read-out: Pre-emergence herbicidal activity (percentage phytotoxicity) ALOMY PRE
  pest or weed control at 250 g/ha: 100%
Lolium perenne (LOLPE); post-emergence, 360 h, POST-emergence, rate 250 g/ha, visual score 15 DAA (100%=total damage, 0%=no damage), read-out: Post-emergence herbicidal activity (percentage phytotoxicity) LOLPE POST
  pest or weed control at 250 g/ha: 100%
Lolium perenne (LOLPE); pre-emergence, 480 h, PRE-emergence, rate 250 g/ha, visual score 20 DAA (100%=total damage, 0%=no damage), read-out: Pre-emergence herbicidal activity (percentage phytotoxicity) LOLPE PRE
  pest or weed control at 250 g/ha: 100%

## Cc1cc(C)c(C2C(=O)CC(CC(=O)NCc3ccc(Cl)cc3)C2=O)c(C)c1 (centres unmarked) [Compound B13]
Avena fatua (AVEFA); post-emergence, 360 h, 250 g/ha, post-emergence, 15 DAA, visual assessment (100%=total damage, 0%=no damage), read-out: Post-emergence herbicidal activity (percentage phytotoxicity) AVEFA POST
  pest or weed control at 250 g/ha: 70%
Avena fatua (AVEFA); pre-emergence, 480 h, 250 g/ha, pre-emergence, 20 DAA, visual assessment (100%=total damage, 0%=no damage), read-out: Pre-emergence herbicidal activity (percentage phytotoxicity) AVEFA PRE
  pest or weed control at 250 g/ha: 40%
[1]; post-emergence, 360 h, 250 g/ha, post-emergence, 15 DAA, visual assessment (100%=total damage, 0%=no damage), read-out: Post-emergence herbicidal activity (percentage phytotoxicity) ECHCG POST
  pest or weed control at 250 g/ha: 80%
[1]; pre-emergence, 480 h, 250 g/ha, pre-emergence, 20 DAA, visual assessment (100%=total damage, 0%=no damage), read-out: Pre-emergence herbicidal activity (percentage phytotoxicity) ECHCG PRE
  pest or weed control at 250 g/ha: 90%
[2]; post-emergence, 360 h, 250 g/ha, post-emergence, 15 DAA, visual assessment (100%=total damage, 0%=no damage), read-out: Post-emergence herbicidal activity (percentage phytotoxicity) ALOMY POST
  pest or weed control at 250 g/ha: 50%
[2]; pre-emergence, 480 h, 250 g/ha, pre-emergence, 20 DAA, visual assessment (100%=total damage, 0%=no damage), read-out: Pre-emergence herbicidal activity (percentage phytotoxicity) ALOMY PRE
  pest or weed control at 250 g/ha: 50%
Lolium perenne (LOLPE); post-emergence, 360 h, 250 g/ha, post-emergence, 15 DAA, visual assessment (100%=total damage, 0%=no damage), read-out: Post-emergence herbicidal activity (percentage phytotoxicity) LOLPE POST
  pest or weed control at 250 g/ha: 90%
Lolium perenne (LOLPE); pre-emergence, 480 h, 250 g/ha, pre-emergence, 20 DAA, visual assessment (100%=total damage, 0%=no damage), read-out: Pre-emergence herbicidal activity (percentage phytotoxicity) LOLPE PRE
  pest or weed control at 250 g/ha: 90%

## C#CC(C)(C)NC(=O)CC1CC(=O)C(c2c(C)cc(-c3ncc(Cl)cn3)cc2C)C1=O (centres unmarked) [Compound B343]
Avena fatua (AVEFA); [3]
  pest or weed control at 250 g/ha: 100%
Avena fatua (AVEFA); [4]
  pest or weed control at 250 g/ha: 90%
[1]; [5]
  pest or weed control at 250 g/ha: 100%
[1]; [6]
  pest or weed control at 250 g/ha: 100%
[2]; [7]
  pest or weed control at 250 g/ha: 100%
[2]; [8]
  pest or weed control at 250 g/ha: 100%
Lolium perenne (LOLPE); [9]
  pest or weed control at 250 g/ha: 100%
Lolium perenne (LOLPE); [10]
  pest or weed control at 250 g/ha: 100%

## C=CCNC(=O)CC1CC(=O)C(c2c(C)cc(-c3ccc(F)cn3)cc2C)C1=O (centres unmarked) [Compound B395]
Avena fatua (AVEFA); [3]
  pest or weed control at 250 g/ha: 100%
Avena fatua (AVEFA); [4]
  pest or weed control at 250 g/ha: 100%
[1]; [5]
  pest or weed control at 250 g/ha: 100%
[1]; [6]
  pest or weed control at 250 g/ha: 100%
[2]; [7]
  pest or weed control at 250 g/ha: 100%
[2]; [8]
  pest or weed control at 250 g/ha: 100%
Lolium perenne (LOLPE); [9]
  pest or weed control at 250 g/ha: 90%
Lolium perenne (LOLPE); [10]
  pest or weed control at 250 g/ha: 100%

## Cc1cc(C)c(C2C(=O)CC(CC(=O)NCC3CSC3)C2=O)c(C)c1 (centres unmarked) [Compound A174]
Avena fatua (AVEFA); post-emergence, 360 h, post-emergence, 250 g/ha, 15 DAA, visual score (100%=total damage; 0%=no damage), read-out: AVEFA POST herbicidal activity (percentage phytotoxicity)
  pest or weed control at 250 g/ha: 0%
[1]; post-emergence, 360 h, post-emergence, 250 g/ha, 15 DAA, visual score (100%=total damage; 0%=no damage), read-out: ECHCG POST herbicidal activity (percentage phytotoxicity)
  pest or weed control at 250 g/ha: 10%
[2]; post-emergence, 360 h, post-emergence, 250 g/ha, 15 DAA, visual score (100%=total damage; 0%=no damage), read-out: ALOMY POST herbicidal activity (percentage phytotoxicity)
  pest or weed control at 250 g/ha: 40%
Lolium perenne (LOLPE); post-emergence, 360 h, post-emergence, 250 g/ha, 15 DAA, visual score (100%=total damage; 0%=no damage), read-out: LOLPE POST herbicidal activity (percentage phytotoxicity)
  pest or weed control at 250 g/ha: 0%

## CC#Cc1cc(C)c(C2C(=O)CC(CC(=O)NC3CCCC3)C2=O)c(CC)c1 (centres unmarked) [Compound A52]
Avena fatua (AVEFA); post-emergence, 360 h, Rate 250 g/ha, post-emergence, assessed visually 15 DAA, 100%=total damage, 0%=no damage, read-out: Post-emergence herbicidal activity (percentage phytotoxicity) AVEFA POST
  pest or weed control at 250 g/ha: 100%
Avena fatua (AVEFA); pre-emergence, 480 h, Rate 250 g/ha, pre-emergence, assessed visually 20 DAA, 100%=total damage, 0%=no damage, read-out: Pre-emergence herbicidal activity (percentage phytotoxicity) AVEFA PRE
  pest or weed control at 250 g/ha: 90%
[1]; post-emergence, 360 h, Rate 250 g/ha, post-emergence, assessed visually 15 DAA, 100%=total damage, 0%=no damage, read-out: Post-emergence herbicidal activity (percentage phytotoxicity) ECHCG POST
  pest or weed control at 250 g/ha: 100%
[1]; pre-emergence, 480 h, Rate 250 g/ha, pre-emergence, assessed visually 20 DAA, 100%=total damage, 0%=no damage, read-out: Pre-emergence herbicidal activity (percentage phytotoxicity) ECHCG PRE
  pest or weed control at 250 g/ha: 90%
[2]; post-emergence, 360 h, Rate 250 g/ha, post-emergence, assessed visually 15 DAA, 100%=total damage, 0%=no damage, read-out: Post-emergence herbicidal activity (percentage phytotoxicity) ALOMY POST
  pest or weed control at 250 g/ha: 100%
[2]; pre-emergence, 480 h, Rate 250 g/ha, pre-emergence, assessed visually 20 DAA, 100%=total damage, 0%=no damage, read-out: Pre-emergence herbicidal activity (percentage phytotoxicity) ALOMY PRE
  pest or weed control at 250 g/ha: 100%
Lolium perenne (LOLPE); post-emergence, 360 h, Rate 250 g/ha, post-emergence, assessed visually 15 DAA, 100%=total damage, 0%=no damage, read-out: Post-emergence herbicidal activity (percentage phytotoxicity) LOLPE POST
  pest or weed control at 250 g/ha: 90%
Lolium perenne (LOLPE); pre-emergence, 480 h, Rate 250 g/ha, pre-emergence, assessed visually 20 DAA, 100%=total damage, 0%=no damage, read-out: Pre-emergence herbicidal activity (percentage phytotoxicity) LOLPE PRE
  pest or weed control at 250 g/ha: 90%
